Results from patent US20230374015A1, “INHIBITORS OF FIBROBLAST GROWTH FACTOR RECEPTOR KINASES” (Kinnate Biopharma Inc., priority 2020, published 2023).
pIC50: −log10 of the molar value. Structures can show the parent of a compound that is named as a salt.

target: FGFR2 (Homo sapiens, UniProt P21802); assay: FGFR2 Kinase Protocol - Condition 2 (Reaction Biology HotSpot radiometric kinase assay, no preincubation); assay type: biochemical; settings: poly[Glu:Tyr] (4:1) 0.2 mg/ml, ATP 100 microM, 2 hr room temperature
Sequence (P21802 22-821): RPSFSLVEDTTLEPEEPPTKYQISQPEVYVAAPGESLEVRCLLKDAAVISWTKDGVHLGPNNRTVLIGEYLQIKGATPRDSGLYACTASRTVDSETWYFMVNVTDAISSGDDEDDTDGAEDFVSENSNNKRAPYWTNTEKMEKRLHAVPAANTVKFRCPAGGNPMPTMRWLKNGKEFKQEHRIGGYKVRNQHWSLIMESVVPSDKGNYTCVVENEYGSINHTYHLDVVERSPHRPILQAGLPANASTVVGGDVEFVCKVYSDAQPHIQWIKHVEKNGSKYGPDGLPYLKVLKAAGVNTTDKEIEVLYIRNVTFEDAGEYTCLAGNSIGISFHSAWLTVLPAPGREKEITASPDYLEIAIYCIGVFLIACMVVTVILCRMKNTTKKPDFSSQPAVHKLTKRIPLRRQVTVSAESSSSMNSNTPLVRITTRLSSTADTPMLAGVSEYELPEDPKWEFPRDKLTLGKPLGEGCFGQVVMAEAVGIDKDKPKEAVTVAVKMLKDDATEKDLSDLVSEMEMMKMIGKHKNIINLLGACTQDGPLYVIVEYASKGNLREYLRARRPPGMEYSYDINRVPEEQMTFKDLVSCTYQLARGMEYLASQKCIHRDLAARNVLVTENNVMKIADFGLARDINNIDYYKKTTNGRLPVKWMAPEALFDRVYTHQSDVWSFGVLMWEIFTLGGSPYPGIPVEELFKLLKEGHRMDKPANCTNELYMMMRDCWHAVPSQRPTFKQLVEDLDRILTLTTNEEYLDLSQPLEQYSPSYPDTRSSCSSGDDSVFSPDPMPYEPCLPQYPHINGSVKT
Procedure: Example 2: FGFR2 Kinase Protocol—Condition 2
The Reaction Biology HotSpot assay platform (http://www.reactionbiology.com) was used to measure kinase/inhibitor interactions as described previously (Anastassiadis et al., 2011). In brief, for each reaction, kinase and substrate were mixed in a buffer containing 20 mM HEPES (pH 7.5), 10 mM MgCl2, 1 mM EGTA, 0.02% Brij35, 0.02 mg/mL BSA, 0.1 mM Na3VO4, 2 mM DTT, and 1% DMSO. All compounds were in powder form and freshly solubilized in DMSO for assays. Compounds were then added to each reaction mixture via acoustic dispense using an ECHO 550 nanoliter dispenser. For Human FGFR2 wildtype testing, a peptide substrate, poly[Glu:Tyr] (4:1) was used to promote the reaction at a concentration of 0.2 mg/ml. For Human FGFR2 (V564F) testing, a peptide substrate, poly[Glu:Tyr] (4:1) was used to promote the reaction at a concentration of 0.2 mg/ml. ATP concentration for all assays was maintained at 100 micromolar. Compounds were tested in 10-dose IC50 mode with a 3-fold serial dilution. Compounds were added to plates and ATP was added directly to the wells. ATP (Sigma-Aldrich, St. Louis, MO 63178) and [g33P] ATP (specific activity 10 microCi/microliter) purchased at PerkinElmer (Boston, MA, 02118 Cat #BLU 003H250UC) were added at a final total concentration of 100 microM to each well with no preincubation. Reactions were carried out at room temperature for 2 hr and spotted onto P81 ion exchange cellulose chromatography paper (Reaction Biology). Filter paper was washed in 0.75% phosphoric acid to remove unincorporated ATP. The percent remaining kinase activity relative to a vehicle-containing (DMSO) kinase reaction was calculated for each kinase/inhibitor pair. IC50 values were calculated using Dotmatics Knowledge Solutions Studies curve fitting (Dotmatics, Bishops Stortford, UK, CM23).

SMILES | pIC50
C=CC(=O)N1C[C@@H](n2nc(C#Cc3c(F)cc4nn(CC)cc4c3F)c3c(N)nccc32)C[C@@H]1COC [Example 51, 1-((2R,4S)-4-(4-amino-3-((2-ethyl-4,6-difluoro-2H-indazol-5-yl)ethynyl)-1H-pyrazolo[4,3-c]pyridin-1-yl)-2-(methoxymethyl)pyrrolidin-1-yl)prop-2-en-1-one] | 6.00 to 7.00
C=CC(=O)N1C[C@@H](n2nc(C#Cc3ccc4c(c3)nc(C)n4CC)c3c(N)ncnc32)C[C@@H]1CC#N [Example 52, 2-((2R,4S)-1-acryloyl-4-(4-amino-3-((1-ethyl-2-methyl-1H-benzo[d]imidazol-5-yl)ethynyl)-1H-pyrazolo[3,4-d]pyrimidin-1-yl)pyrrolidin-2-yl)acetonitrile] | ≥ 7.00
C=CC(=O)N1C[C@@H](n2nc(C#Cc3ccc4c(c3)nc(C)n4CC)c3c(N)nccc32)C[C@@H]1CC#N [Example 53, 2-[(2R,4S)-4-[4-Amino-3-[2-(1-ethyl-2-methyl-1,3-benzodiazol-5-yl)ethynyl]pyrazolo[4,3-c]pyridin-1-yl]-1-(prop-2-enoyl)pyrrolidin-2-yl]acetonitrile; formic acid] | ≥ 7.00
C=CC(=O)N1C[C@@H](n2nc(C#Cc3c(F)cc4c(ncn4C)c3F)c3c(N)ncnc32)C[C@@H]1COC [Example 55, 1-[(2R,4S)-4-[4-Amino-3-[2-(4,6-difluoro-1-methyl-1,3-benzodiazol-5-yl)ethynyl]pyrazolo[3,4-d]pyrimidin-1-yl]-2-(methoxymethyl)pyrrolidin-1-yl] prop-2-en-1-one] | ≥ 7.00
C=CC(=O)N1C[C@@H](n2nc(C#Cc3ccc4c(c3)ncn4C)c3c(N)ncnc32)C[C@@H]1COC(F)(F)F [Example 56, 1-((2R,4S)-4-(4-Amino-3-((1-methyl-1H-benzo[d]imidazol-5-yl)ethynyl)-1H-pyrazolo[3,4-d]pyrimidin-1-yl)-2-((trifluoromethoxy)methyl)pyrrolidin-1-yl)prop-2-en-1-one] | ≥ 7.00
C=CC(=O)N1C[C@@H](n2nc(C#Cc3cc4ncn(C)c4cc3F)c3c(N)ncnc32)C[C@@H]1COC(F)(F)F [Example 57, 1-[(2R,4S)-4-[4-Amino-3-[2-(6-fluoro-1-methyl-1,3-benzodiazol-5-yl)ethynyl]pyrazolo[3,4-d]pyrimidin-1-yl]-2-[(trifluoromethoxy)methyl]pyrrolidin-1-yl]prop-2-en-1-one] | ≥ 7.00

Continued, values first:

pIC50 | SMILES
≥ 7.00 | C=CC(=O)N1C[C@@H](n2nc(C#Cc3c(F)cc4c(ncn4C)c3F)c3c(N)ncnc32)C[C@@H]1COC(F)(F)F [Example 54, 1-[(2R,4S)-4-[4-Amino-3-[2-(4,6-difluoro-1-methyl-1,3-benzodiazol-5-yl)ethynyl]pyrazolo[3,4-d]pyrimidin-1-yl]-2-[(trifluoromethoxy)methyl]pyrrolidin-1-yl]prop-2-en-1-one]
≥ 7.00 | C=CC(=O)N1C[C@@H](n2nc(C#Cc3ccc4c(c3)ncn4C)c3c(N)nccc32)C[C@@H]1COC(F)(F)F [Example 58, 1-((2R,4S)-4-(4-Amino-3-((1-methyl-1H-benzo[d]imidazol-5-yl)ethynyl)-1H-pyrazolo[4,3-c]pyridin-1-yl)-2-((trifluoromethoxy)methyl)pyrrolidin-1-yl)prop-2-en-1-one formate]
≥ 7.00 | C=CC(=O)N1C[C@@H](n2nc(C#Cc3cc4ncn(C)c4cc3F)c3c(N)nccc32)C[C@@H]1COC(F)(F)F [Example 59, 1-((2R,4S)-4-(4-amino-3-((6-fluoro-1-methyl-1H-benzo[d]imidazol-5-yl)ethynyl)-1H-pyrazolo[4,3-c]pyridin-1-yl)-2-((trifluoromethoxy)methyl)pyrrolidin-1-yl)prop-2-en-1-one formate]
≥ 7.00 | C=CC(=O)N1C[C@@H](n2nc(C#Cc3c(F)cc4c(ncn4C)c3F)c3c(N)nccc32)C[C@@H]1COC(F)(F)F [Example 60, 1-[(2R,4S)-4-[4-Amino-3-[2-(4,6-difluoro-1-methyl-1,3-benzodiazol-5-yl)ethynyl]pyrazolo[4,3-c]pyridin-1-yl]-2-[(trifluoromethoxy)methyl]pyrrolidin-1-yl]prop-2-en-1-one]
